Experiments:
[1] = DPPH radical scavenging activity assay; settings: free radical scavenging
Description: The DPPH radical scavenging activity was evaluated using methods outlined in Blois (1958), with slight modifications. Different concentrations in 160 μL of MeOH (final concentration = 320 μg/mL for the extracts, fractions, and the compounds) were added to 40 μL of a DPPH:MeOH solution (1.5 × 10^−4 M). After gently mixing the sample and letting it stand at room temperature for 30 min, the optical density was measured at 520 nm using a VERSAmax microplate spectrophotometer (Molecular Devices). […] We used L-ascorbic acid as the positive control. The IC50 values presented here are expressed as the mean ± the standard error of the mean of triplicate experiments.

α-glucosidase = α-glucosidase (Saccharomyces cerevisiae, UniProt P53341); assay type: biochemical; settings: at the tested concentration
Description: Enzyme inhibition studies were carried out spectrophotometrically in a 96-well microplate reader using a procedure reported by Li. A 60 µL reaction mixture, containing 20 µL of 100 mM phosphate buffer (pH 6.8), 20 µL of 2.5 mM p-NPG in the buffer, and 20 µL of PPT-14 dissolved in 10% DMSO, was added to each well. The enzymatic reaction was initiated by the addition of 20 µL of 10 mM phosphate buffer (pH 6.8), containing 0.2 U/mL α-glucosidase to each well. The plate was incubated at 37 °C for 15 min, and then 80 µL of 0.2 mol/L sodium carbonate solution was added to stop the reaction. Immediately after that, the absorbance was recorded at 405 nm using a VERSA max (Molecular Devices, Sunnyvale, CA, USA) microplate reader. Control samples contained the same reaction mixture, except that an equivalent volume of phosphate buffer was added instead of the sample solution. […] The inhibition (%) was calculated as (Ac − As)/Ac × 100%, where Ac was the absorbance of the control, and As was the absorbance of the sample.

[2] = molecular target: human recombinant aldose reductase (HRAR) (Homo sapiens, UniProt P15121); assay: Human recombinant aldose reductase (HRAR)-inhibitory activity assay (DL-glyceraldehyde substrate); assay type: biochemical
Description: The reaction mixture was prepared as follows: we combined 100 µL of 0.15 mM nicotinamide adenine dinucleotide phosphate (NADPH), 100 µL of 10mM DL-glyceraldehyde as a substrate, and 5 µL of HRAR with the sample (final concentration of 100 µM for the test compound, dissolved in 100% DMSO) in a total volume of 1.0 mL of 100 mM sodium phosphate buffer (pH 6.2). The AR activity was determined by measuring the decrease in nicotinamide adenine dinucleotide phosphate (NADPH) absorption at 340 nm over a period of 1 min using an Ultrospec-2100pro UV–visible spectrophotometer with Microsoft™ Excel, control by SWIFT II software (Amersham Biosciences, Piscataway, NJ, USA). […] The inhibition percentage (%) was calculated as described for the assay of Renilla luciferase, except that the DA sample/min represented a reduction in absorbance for 1 min with the test samples and substrate. The HRAR-inhibitory activity of each sample was expressed in terms of the IC50 value (µM), which was calculated from the log–dose inhibition curve.

PTP1B = molecular target: T1, PTP1B (Homo sapiens, UniProt P18031); assay: PTP1B-inhibitory activity assay (p-NPP substrate); assay type: biochemical
T1 sequence (P18031 1-435): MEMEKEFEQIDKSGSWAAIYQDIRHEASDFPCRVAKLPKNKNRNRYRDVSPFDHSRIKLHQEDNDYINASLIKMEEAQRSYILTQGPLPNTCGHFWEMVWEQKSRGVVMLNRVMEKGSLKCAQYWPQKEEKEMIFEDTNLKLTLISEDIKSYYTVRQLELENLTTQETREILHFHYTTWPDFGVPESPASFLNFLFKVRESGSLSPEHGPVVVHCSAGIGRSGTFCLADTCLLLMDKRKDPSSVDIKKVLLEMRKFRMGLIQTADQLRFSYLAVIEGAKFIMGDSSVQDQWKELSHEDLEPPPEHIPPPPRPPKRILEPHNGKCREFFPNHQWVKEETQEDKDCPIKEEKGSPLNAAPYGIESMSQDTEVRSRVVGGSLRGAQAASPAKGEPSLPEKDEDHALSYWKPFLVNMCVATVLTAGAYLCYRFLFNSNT
Description: Following incubation at 37 °C for 30 min, the reaction was terminated with the addition of 10 M NaOH.

Sequence of α-glucosidase (P53341 whole entry): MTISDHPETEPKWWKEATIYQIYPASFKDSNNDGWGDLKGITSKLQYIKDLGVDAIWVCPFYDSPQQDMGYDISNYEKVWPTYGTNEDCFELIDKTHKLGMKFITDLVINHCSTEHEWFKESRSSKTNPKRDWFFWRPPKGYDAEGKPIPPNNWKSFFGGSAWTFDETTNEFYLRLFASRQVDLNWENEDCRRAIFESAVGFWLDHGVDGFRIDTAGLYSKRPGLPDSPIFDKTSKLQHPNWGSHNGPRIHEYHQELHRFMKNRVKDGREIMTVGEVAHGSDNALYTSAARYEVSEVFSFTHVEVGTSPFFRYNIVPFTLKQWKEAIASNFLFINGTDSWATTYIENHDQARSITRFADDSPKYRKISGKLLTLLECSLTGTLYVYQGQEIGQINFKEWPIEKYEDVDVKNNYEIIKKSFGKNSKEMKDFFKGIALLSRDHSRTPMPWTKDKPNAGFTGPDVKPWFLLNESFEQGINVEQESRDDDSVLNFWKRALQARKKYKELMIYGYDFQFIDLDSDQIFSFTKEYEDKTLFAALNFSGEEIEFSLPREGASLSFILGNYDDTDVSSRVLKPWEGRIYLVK

| SMILES | DPPH IC50 [1] [mg/L] | IC50 [1] [µM] | α-glucosidase inhibitory activity (α-glucosidase) | IC50 [2] [µM] | IC50 (PTP1B) [µM] |
| --- | --- | --- | --- | --- | --- |
| O=C1O[C@H]([C@@H](O)CO)C(O)=C1O [Ascorbic acid, reference compound] | 5.6 | 31.8 | – | – | – |
| C[C@@](O)(C(=O)O)[C@H](O)COC(=O)/C=C/c1ccc(O)c(O)c1 [PPT-14, 4-O-caffeoyl-2-C-methyl-D-threonic acid] | 4.5 | 14.5 | did not exhibit any α-glucosidase inhibitory activity | 19.5 ± 0.51 | 64.92 ± 0.34 |

From PMC11818712, “Unveiling the Multitarget Potential of a Rare Caffeoyl Ester from Artemisia capillaris for Diabetes Mellitus: An Integrated In Vitro and In Silico Study” (International Journal of Molecular Sciences, 2025)
